Assay results: ChEMBL document CHEMBL1156828, “Pyridinylquinoxalines and pyridinylpyridopyrazines as lead compounds for novel p38 alpha mitogen-activated protein kinase inhibitors” (J Med Chem, 2010)

target: Mitogen-activated protein kinase 10 (Homo sapiens, UniProt P53779); assay: Inhibition of JNK3 by nonradioactive JNK3 assay
Sequence (P53779 whole entry): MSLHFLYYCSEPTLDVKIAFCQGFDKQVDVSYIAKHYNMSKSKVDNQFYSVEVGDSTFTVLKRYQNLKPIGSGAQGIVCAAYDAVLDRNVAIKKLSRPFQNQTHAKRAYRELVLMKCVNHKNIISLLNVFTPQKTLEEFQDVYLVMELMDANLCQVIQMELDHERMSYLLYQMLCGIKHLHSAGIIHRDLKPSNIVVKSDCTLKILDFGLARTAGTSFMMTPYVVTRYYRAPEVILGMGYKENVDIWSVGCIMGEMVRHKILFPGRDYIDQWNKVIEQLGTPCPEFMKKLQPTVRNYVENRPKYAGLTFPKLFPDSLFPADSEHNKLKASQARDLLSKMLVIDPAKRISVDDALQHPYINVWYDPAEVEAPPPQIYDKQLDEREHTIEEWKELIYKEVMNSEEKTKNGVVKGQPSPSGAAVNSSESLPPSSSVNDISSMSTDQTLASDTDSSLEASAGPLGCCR

Question: With `CC(C)Nc1cc(-c2nc3ccccc3nc2-c2ccc(F)cc2)ccn1` as the molecule, how does the IC50 read?
Answer: 3950 nM

target: T1, Mitogen-activated protein kinase 14 (Homo sapiens, UniProt Q16539); assay: Inhibition of p38alpha-mediated ATF2 phosphorylation in presence of ATP
T1 sequence (Q16539 whole entry): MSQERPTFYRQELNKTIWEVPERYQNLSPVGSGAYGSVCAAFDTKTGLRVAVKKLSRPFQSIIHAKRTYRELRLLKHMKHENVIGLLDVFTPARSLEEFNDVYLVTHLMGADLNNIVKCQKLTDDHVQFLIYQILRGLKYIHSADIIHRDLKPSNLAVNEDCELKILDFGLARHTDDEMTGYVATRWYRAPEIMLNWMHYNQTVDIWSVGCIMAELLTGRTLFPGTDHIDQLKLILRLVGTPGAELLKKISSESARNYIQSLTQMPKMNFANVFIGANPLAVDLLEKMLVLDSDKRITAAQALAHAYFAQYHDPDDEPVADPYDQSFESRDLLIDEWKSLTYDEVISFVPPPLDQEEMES

Question: With `CC(C)Nc1cc(-c2nc3cccnc3nc2-c2ccc(F)cc2)ccn1` as the molecule, how does the IC50 read?
Answer: 38 nM

Question: With `O[C@H]1CC[C@H](Nc2cc(-c3nc4cc(Cl)c(Cl)cc4nc3-c3ccc(F)cc3)ccn2)CC1` as the molecule, how does the IC50 read?
Answer: 608 nM

Question: For `CCC(C)Nc1cc(-c2nc3ccccc3nc2-c2ccc(F)cc2)ccn1` (stereo not given), which IC50 is on record?
Answer: 114 nM

Question: `COc1ccc2nc(-c3ccncc3)c(-c3ccc(F)cc3)nc2c1` was tested. Which IC50 did it give?
Answer: 6140 nM

Question: Which IC50 does the source give for `CC(Nc1cc(-c2nc3ccccc3nc2-c2ccc(F)cc2)ccn1)c1ccccc1` (stereo not given) here?
Answer: 720 nM

Question: For `Cc1cc2nc(-c3ccncc3)c(-c3ccc(F)cc3)nc2cc1C`, which IC50 is on record?
Answer: 3700 nM

Question: For `Cc1cc2nc(-c3ccc(F)cc3)c(-c3ccnc(NC(C)C)c3)nc2cc1C`, which IC50 is on record?
Answer: 238 nM

Question: With `CC(C)C(C)Nc1cc(-c2nc3ccccc3nc2-c2ccc(F)cc2)ccn1` (stereo not given) as the molecule, how does the IC50 read?
Answer: 790 nM

Question: `CC(C)Nc1cc(-c2nc3ncccc3nc2-c2ccc(F)cc2)ccn1` was tested. Which IC50 did it give?
Answer: 333 nM

Question: With `Cc1cc2nc(-c3ccc(F)cc3)c(-c3ccnc(NC(C)C(C)C)c3)nc2cc1C` (stereo not given) as the molecule, how does the IC50 read?
Answer: 1380 nM

Question: With `CC(C)Nc1cc(-c2nc3ccccc3nc2-c2ccc(F)cc2)ccn1` as the molecule, how does the IC50 read?
Answer: 81 nM

Question: Which IC50 does the source give for `CC(C)C(C)Nc1cc(-c2nc3cc(Cl)c(Cl)cc3nc2-c2ccc(F)cc2)ccn1` (stereo not given) here?
Answer: 9460 nM

Question: With `CC(C)Nc1cc(-c2nc3cc(Cl)c(Cl)cc3nc2-c2ccc(F)cc2)ccn1` as the molecule, how does the IC50 read?
Answer: 412 nM

Question: How did the IC50 turn out when `Fc1ccc(-c2nc3ccccc3nc2-c2ccncc2)cc1` was run?
Answer: 3150 nM

Question: With `Cc1cc2nc(-c3ccc(F)cc3)c(-c3ccnc(N[C@H]4CC[C@H](O)CC4)c3)nc2cc1C` as the molecule, how does the IC50 read?
Answer: 259 nM

Question: Which IC50 does the source give for `Cc1cc2nc(-c3ccc(F)cc3)c(-c3ccnc(NCc4ccccc4)c3)nc2cc1C` here?
Answer: 1530 nM

Question: With `CC(C)CNc1cc(-c2nc3ccccc3nc2-c2ccc(F)cc2)ccn1` as the molecule, how does the IC50 read?
Answer: 642 nM

Question: How did the IC50 turn out when `CC(C)[C@@H](C)Nc1cc(-c2nc3ccccc3nc2-c2ccc(F)cc2)ccn1` was run?
Answer: 1590 nM

Question: `C[C@H](Nc1cc(-c2nc3ccccc3nc2-c2ccc(F)cc2)ccn1)c1ccccc1` was tested. Which IC50 did it give?
Answer: 431 nM

Question: Which IC50 does the source give for `C[C@@H](Nc1cc(-c2nc3ccccc3nc2-c2ccc(F)cc2)ccn1)c1ccccc1` here?
Answer: 4790 nM

Question: For `Fc1ccc(-c2nc3ncccc3nc2-c2ccncc2)cc1`, which IC50 is on record?
Answer: 3190 nM

Question: How did the IC50 turn out when `CCC(C)Nc1cc(-c2nc3cc(C)c(C)cc3nc2-c2ccc(F)cc2)ccn1` (stereo not given) was run?
Answer: 595 nM

Question: For `O[C@H]1CC[C@H](Nc2cc(-c3nc4ccccc4nc3-c3ccc(F)cc3)ccn2)CC1`, which IC50 is on record?
Answer: 211 nM

Question: For `CC(C)[C@H](C)Nc1cc(-c2nc3ccccc3nc2-c2ccc(F)cc2)ccn1`, which IC50 is on record?
Answer: 576 nM

target: T1, Mitogen-activated protein kinase 14; assay: Inhibition of p38alpha-mediated ATF2 phosphorylation at 10 uM in presence of ATP

Question: How did the inhibition turn out when `Fc1ccc(-c2nc3cccnc3nc2-c2ccncc2)cc1` was run?
Answer: 46%

Question: Which inhibition does the source give for `Fc1ccc(-c2nc3cc(Cl)c(Cl)cc3nc2-c2ccnc(NCc3ccccc3)c2)cc1` here?
Answer: 37%

Question: For `COc1ccc2nc(-c3ccc(F)cc3)c(-c3ccncc3)nc2c1`, which inhibition is on record?
Answer: 33%

Question: `Fc1ccc(-c2nc3cc(Cl)c(Cl)cc3nc2-c2ccncc2)cc1` was tested. Which inhibition did it give?
Answer: 39%

Question: `Fc1ccc(-c2nc3ccccc3nc2-c2ccnc(NCc3ccccc3)c2)cc1` was tested. Which inhibition did it give?
Answer: 9%
